The results in this text go back to patent publication US8173631B2, “Cyclic amine compounds” (Daiichi Sankyo Company, Limited, priority 2008, dated 2012).

Molecules are shown by their SMILES. Where only a bound is given, the exact number is not on record here.

A word on the IC50: it is the concentration at which inhibition is half-maximal.

For the experiment, the target named is T1, human calcium-sensing receptor (CaSR) (Homo sapiens, UniProt P41180).
T1 construct: expressed in transfected cells
T1 sequence (P41180 20-1078): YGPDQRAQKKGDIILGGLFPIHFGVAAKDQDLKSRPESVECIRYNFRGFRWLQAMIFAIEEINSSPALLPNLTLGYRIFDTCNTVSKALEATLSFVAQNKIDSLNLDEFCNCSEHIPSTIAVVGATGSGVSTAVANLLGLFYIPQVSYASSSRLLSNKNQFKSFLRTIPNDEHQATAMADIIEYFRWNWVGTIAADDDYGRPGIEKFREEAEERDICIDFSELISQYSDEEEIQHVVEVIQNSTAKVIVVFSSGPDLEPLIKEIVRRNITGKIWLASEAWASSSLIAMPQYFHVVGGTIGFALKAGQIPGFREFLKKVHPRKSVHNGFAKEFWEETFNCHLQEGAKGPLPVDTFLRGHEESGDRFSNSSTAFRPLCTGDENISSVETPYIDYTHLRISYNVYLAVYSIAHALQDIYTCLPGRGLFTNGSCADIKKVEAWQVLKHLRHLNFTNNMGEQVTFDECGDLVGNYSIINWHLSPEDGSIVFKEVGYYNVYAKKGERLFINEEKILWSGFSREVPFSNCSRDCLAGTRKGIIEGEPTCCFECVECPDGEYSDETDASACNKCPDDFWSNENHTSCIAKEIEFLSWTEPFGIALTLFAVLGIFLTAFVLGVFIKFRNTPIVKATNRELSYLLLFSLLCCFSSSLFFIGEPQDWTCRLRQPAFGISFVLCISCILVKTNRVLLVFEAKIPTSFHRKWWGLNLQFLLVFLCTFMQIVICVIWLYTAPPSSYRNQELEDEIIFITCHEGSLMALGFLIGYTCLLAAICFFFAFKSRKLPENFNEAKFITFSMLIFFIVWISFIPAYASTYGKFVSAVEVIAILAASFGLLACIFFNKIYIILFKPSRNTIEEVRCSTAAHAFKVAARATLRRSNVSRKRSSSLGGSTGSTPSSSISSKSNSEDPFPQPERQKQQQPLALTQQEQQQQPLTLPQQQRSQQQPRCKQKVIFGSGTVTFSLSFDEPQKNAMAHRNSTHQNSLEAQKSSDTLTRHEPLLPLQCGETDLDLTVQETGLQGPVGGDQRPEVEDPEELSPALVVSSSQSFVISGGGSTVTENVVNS
Kind of experiment: Inhibitory activity on calcium-sensing receptor (CaSR), intracellular calcium increase as indicator (FLIPR, CHO/hCaSR). Type of experiment: cell-based. The conditions noted are these: CHO cells stably expressing human CaSR; inhibition of intracellular Ca increase induced by extracellular CaCl2. The method, then: Evaluation of inhibitory activity on calcium-sensing receptor (CaSR) using intracellular calcium increase as an indicator
The preparation which is prepared by adding CHO/hCaSR to F12 medium (manufactured by Invitrogen) containing 10% fetal bovine serum to have 2×10^5 cells/mL was applied to a 384-well in an amount of 50 μL/well, and then incubated overnight in a CO2 incubator. The culture supernatant was completely removed, the assay buffer (20 mM HEPES, HBSS (Ca and Mg free) containing 2.5 mM probenecid, pH 7.4) containing Calcium 3 (manufactured by Molecular Devices), i.e., a fluorescent intracellular calcium indicator, was added thereto in an amount of 25 μL/well, and the mixture was maintained for 1 hour in a CO2 incubator. Meanwhile, Calcium 3 was prepared according to the protocol enclosed in FLIPR Calcium 3 Assay Kit (manufactured by Molecular Devices). After maintaining it for 1 hour, a solution in which the test compound is prepared to have 2.1 to 20,000 nM (final concentration of 1.05 to 10,000 nM) by an assay buffer was added thereto in an amount of 25 μL/well, and maintained for 15 minutes in a CO2 incubator. Then, the CaCl2 solution prepared to have […] by using the assay buffer was added in an amount of 25 μL/well, and the resulting intracellular Ca increase (i.e., fluorescence intensity) was measured over time using a fluorescence imaging plate reader (FLIPR, manufactured by Molecular Devices). From the data obtained, the difference between the fluorescence intensity before the addition of CaCl2 solution and the maximum fluorescence intensity after the addition of CaCl2 solution was calculated, and the 50% inhibition concentration (IC50) of the test compound was obtained.
A general note: Calcium flux is commonly read through the fluorescence of an indicator in the cells.

With `Cc1ccc(C[C@@H]2CCCN2C[C@@H](O)CO[C@H](C)c2ccccc2/C=C/C(=O)O)cc1F` [Example 1, (2E)-3-{2-[(1R)-1-({(2R)-3-[(2S)-2-(3-Fluoro-4-methylbenzyl)pyrrolidin-1-yl]-2-hydroxypropyl}oxy)ethyl]phenyl}prop-2-enoic acid], the IC50 is at most 3.62 µM. In the case of `Cc1ccc(C[C@@H]2CCCN2C[C@@H](O)CO[C@H](C)c2ccccc2CCC(=O)O)cc1F` [Example 2, 3-{2-[(1R)-1-({(2R)-3-[(2S)-2-(3-Fluoro-4-methylbenzyl)pyrrolidin-1-yl]-2-hydroxypropyl}oxy)ethyl]phenyl}propanoic acid] it was at most 3.61 µM; in that of `Cc1ccc(C[C@@H]2CCCN2C[C@@H](O)CO[C@H](C)c2cccc(C)c2CCC(=O)O)cc1F` [Example 3, 3-{2-[(1R)-1-({(2R)-3-[(2S)-2-(3-Fluoro-4-methylbenzyl)pyrrolidin-1-yl]-2-hydroxypropyl}oxy)ethyl]-6-methylphenyl}propanoic acid], at most 3.5 µM; in that of `Cc1ccc([C@@H](C)OC[C@H](O)CN2CCC[C@H]2Cc2ccc(C)c(F)c2)c(CCC(=O)O)c1` [Example 4, 3-{2-[(1R)-1-({(2R)-3-[(2S)-2-(3-Fluoro-4-methylbenzyl)pyrrolidin-1-yl]-2-hydroxypropyl}oxy)ethyl]-5-methylphenyl}propanoic acid], at most 3.5 µM.

In the case of `Cc1ccc(C[C@@H]2CCCN2C[C@@H](O)CO[C@H](C)c2cccc(F)c2CCC(=O)O)cc1F` [Example 6, 3-{2-Fluoro-6-[(1R)-1-({(2R)-3-[(2S)-2-(3-fluoro-4-methylbenzyl)pyrrolidin-1-yl]-2-hydroxypropyl}oxy)ethyl]phenyl}propanoic acid], the IC50 is at most 3.47 µM. The value for `Cc1ccc(C[C@@H]2CCCN2C[C@@H](O)CO[C@H](C)c2cc(F)ccc2CCC(=O)O)cc1F` [Example 8, 3-{4-Fluoro-2-[(1R)-1-({(2R)-3-[(2S)-2-(3-fluoro-4-methylbenzyl)pyrrolidin-1-yl]-2-hydroxypropyl}oxy)ethyl]phenyl}propanoic acid] was at most 3.47 µM. For the molecule `Cc1ccc(C[C@@H]2CCCN2C[C@@H](O)CO[C@H](C)c2ccccc2CCCCC(=O)O)cc1F` [Example 13, 5-{2-[(1R)-1-({(2R)-3-[(2S)-2-(3-Fluoro-4-methylbenzyl)pyrrolidin-1-yl]-2-hydroxypropyl}oxy)ethyl]phenyl}pentanoic acid], the IC50 is at most 3.39 µM.

Regarding `Cc1ccc(C[C@@H]2CCN2C[C@@H](O)CO[C@H](C)c2ccccc2CCCCC(=O)O)cc1F` [Example 15, 5-{2-[(1R)-1-({(2R)-3-[(2R)-2-(3-Fluoro-4-methylbenzyl)azetidin-1-yl]-2-hydroxypropyl}oxy)ethyl]phenyl}pentanoic acid], the IC50 was at most 3.5 µM. Turning to `COc1cccc([C@@H](C)OC[C@H](O)CN2CCC[C@H]2Cc2ccc(C)c(F)c2)c1CCC(=O)O` [Example 18], the IC50 was at most 3.38 µM. For the molecule `CC[C@@H](OC[C@H](O)CN1CCC[C@H]1Cc1ccc(C)c(F)c1)c1ccccc1CCC(=O)O` [Example 19], the IC50 is at most 3.5 µM. In the case of `Cc1ccc(C[C@@H]2CCCN2C[C@@H](O)CO[C@H](C)c2ccc(F)c(C)c2CCC(=O)O)cc1F` [Example 20] it was at most 3.36 µM. The value for `CCC[C@@H](OC[C@H](O)CN1CCC[C@H]1Cc1ccc(C)c(F)c1)c1ccccc1CCC(=O)O` [Example 21] was at most 3.39 µM; that for `Cc1ccc(C[C@@H]2CCCN2C[C@@H](O)CO[C@H](C)c2cc(F)c(C)cc2CCC(=O)O)cc1F` [Example 22] was at most 3.36 µM. The value for `Cc1ccc(C[C@@H]2CCCN2C[C@@H](O)CO[C@H](C)c2cc(F)c(C)cc2CCCCC(=O)O)cc1F` [Example 23] was at most 3.18 µM; that for `Cc1ccc(C[C@@H]2CCCN2C[C@@H](O)CO[C@H](C)c2cc(F)c(F)cc2CCC(=O)O)cc1F` [Example 26] was at most 3.34 µM; that for `Cc1ccc(C[C@@H]2CCCN2C[C@@H](O)CO[C@H](C)c2cc(F)cc(F)c2CCC(=O)O)cc1F` [Example 27] was at most 3.34 µM. In the case of `Cc1ccc(C[C@@H]2CCCN2C[C@@H](O)CO[C@@H](c2ccccc2CCC(=O)O)C2CC2)cc1F` [Example 29], the concentration for half-maximal inhibition (IC50) is at most 3.41 µM. In the case of `Cc1ccc(C[C@@H]2CCCN2C[C@@H](O)CO[C@H](C)c2cc(F)c(F)cc2CCCCC(=O)O)cc1F` [Example 30] it was at most 3.15 µM.

Regarding `Cc1ccc(C[C@@H]2CCCN2C[C@@H](O)COC(C)c2c(F)cccc2CCC(=O)O)cc1F` (some centres unmarked) [Example 31], the half-maximal inhibitory concentration (IC50) was at most 3.47 µM. The value for `Cc1ccc(C[C@@H]2CCCN2C[C@@H](O)COC(C)c2c(C)cccc2CCC(=O)O)cc1F` (some centres unmarked) [Example 32] was at most 3.5 µM; that for `COc1cc(F)cc([C@@H](C)OC[C@H](O)CN2CCC[C@H]2Cc2ccc(C)c(F)c2)c1CCC(=O)O` [Example 33] was at most 3.25 µM. In the case of `Cc1ccc(C[C@@H]2CCCN2C[C@@H](O)COC(C)c2c(CCC(=O)O)ccc(F)c2F)cc1F` (some centres unmarked) [Example 34] it was at most 3.34 µM.

`C[C@@H](OC[C@H](O)CN1CCC[C@H]1Cc1ccc(F)c(F)c1)c1ccccc1CCC(=O)O` [Example 38]: the IC50 was at most 3.58 µM. In the case of `CCc1cccc(C[C@@H]2CCCN2C[C@@H](O)CO[C@H](C)c2ccccc2CCC(=O)O)c1` [Example 39] it was at most 3.64 µM. In the case of `COc1cccc([C@@H](C)OC[C@H](O)CN2CCC[C@H]2Cc2ccc(C)c(F)c2)c1CCCCC(=O)O` [Example 42] it was at most 3.19 µM; in that of `CC[C@@H](OC[C@H](O)CN1CCC[C@H]1Cc1ccc(C)c(F)c1)c1cc(F)ccc1CCC(=O)O` [Example 43], at most 3.36 µM. As for `CC[C@@H](OC[C@H](O)CN1CCC[C@H]1Cc1ccc(C)c(F)c1)c1cccc(F)c1CCC(=O)O` [Example 44], the half-inhibitory concentration (IC50) is at most 3.36 µM. As to `CC[C@@H](OC[C@H](O)CN1CCC[C@H]1Cc1ccc(C)c(F)c1)c1ccc(C)cc1CCC(=O)O` [Example 45], the IC50 was at most 3.39 µM.

`CC[C@@H](OC[C@H](O)CN1CCC[C@H]1Cc1ccc(C)c(F)c1)c1cccc(OC)c1CCC(=O)O` [Example 46]: the IC50 was at most 3.28 µM. The value for `CC[C@@H](OC[C@H](O)CN1CCC[C@H]1Cc1ccc(C)c(F)c1)c1cccc(C)c1CCC(=O)O` [Example 47] was at most 3.39 µM.

For the molecule `Cc1ccc(C[C@@H]2C[C@@H](F)CN2C[C@@H](O)CO[C@H](C)c2ccccc2CCC(=O)O)cc1F` [Example 48], the IC50 is at most 3.47 µM. The value for `Cc1ccc(C[C@@H]2C[C@@H](O)CN2C[C@@H](O)CO[C@H](C)c2ccccc2CCC(=O)O)cc1F` [Example 49] was at most 3.48 µM. In the case of `Cc1ccc([C@@H](C)OC[C@H](O)CN2CCC[C@H]2Cc2ccc(C)c(F)c2)c(CCCCC(=O)O)c1` [Example 53] it was at most 3.29 µM; in that of `Cc1ccc(C[C@@H]2CCCN2C[C@@H](O)CO[C@H](C)c2ccc(F)cc2CCCCC(=O)O)cc1F` [Example 54], at most 3.27 µM; in that of `Cc1ccc(C[C@@H]2CCCN2C[C@@H](O)CO[C@H](C)c2cc(F)ccc2CCCCC(=O)O)cc1F` [Example 55], at most 3.27 µM. On to `Cc1ccc(C[C@@H]2CCCN2C[C@@H](O)CO[C@H](C)c2cccc(C)c2CCCCC(=O)O)cc1F` [Example 57], for which the IC50 is at most 3.29 µM. In the case of `Cc1ccc(C[C@@H]2CCCN2C[C@@H](O)CO[C@H](C)c2cccc(F)c2CCCCC(=O)O)cc1F` [Example 58] it was at most 3.27 µM.

As for `Cc1ccc(C[C@@H]2CCCN2C[C@@H](O)CO[C@H](C)c2cc(C(F)(F)F)ccc2CCCCC(=O)O)cc1F` [Example 60], the IC50 is at most 2.97 µM.
